Drawing on PubChem BioAssay (NCI), this text covers GI50 and TGI for seven compounds.

Test systems include MDA-MB-435; RXF 393 renal; DU-145 prostate; BT-549 breast; M14 melanoma; HOP-92 NSCLC; IGROV1 ovarian; UO-31 renal; HT29 colon; OVCAR-4 ovarian.
Assay in all cases: NCI-60 cell line screen, 48 h

Structures are written as SMILES. Where “and” joins values, the source holds several entries; their conditions need not be identical. Equal entries are not always repeated.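 Each compound was tested at five concentrations against cells in 96-well plates for 48 hours. Abbreviation: GI50, concentration required for 50% inhibition of growth. Definition used: TGI = concentration required for complete inhibition of growth.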 Where only a bound is given, the exact number is not on record here.

Take `COc1cc(/C=C2\C(=O)Nc3cc(C)c(O)cc32)cc(OC)c1OC`: the GI50 was 1.52 µM in the test with MDA-MB-435; 3.46 µM in the test with RXF 393 renal; 3.67 µM with DU-145 prostate; 1.86 µM in the test on BT-549 breast; 4.45 µM with M14 melanoma; 5.61 µM with HOP-92 NSCLC. Also, the GI50 in the test on IGROV1 ovarian was 5.35 µM; in the test on UO-31 renal, 4.94 µM; with HT29 colon it was 4.01 µM; in the test on OVCAR-4 ovarian, 8.23 µM. The TGI in the test on MDA-MB-435 is 3.7 µM; in the test with RXF 393 renal, 13.4 µM; in the test on DU-145 prostate, 17.1 µM; in the test with BT-549 breast it was 6.26 µM; with M14 melanoma, 17.3 µM; in the test with HOP-92 NSCLC it was over 100 µM. Also, the TGI is 21.3 µM with IGROV1 ovarian, 41.6 µM in the test with UO-31 renal, over 39.6 µM with HT29 colon and over 67.7 µM in the test on OVCAR-4 ovarian.
With `O=C1c2ccccc2-c2c1c1c(=O)[nH]c3ccccc3c1n2Cc1ccccc1`, the GI50 in the test with MDA-MB-435 is over 100 µM; in the test on RXF 393 renal, 29.7 µM; in the test on DU-145 prostate, 43.8 µM; in the test with BT-549 breast, 19.5 µM; with M14 melanoma it was over 100 µM; in the test on HOP-92 NSCLC, 15.8 µM. Further, the GI50 is 29.9 µM in the test with IGROV1 ovarian, over 100 µM in the test on UO-31 renal, over 100 µM in the test on HT29 colon and 45.4 µM in the test with OVCAR-4 ovarian. For the same compound, the TGI in the test on MDA-MB-435 is over 100 µM; in the test with RXF 393 renal, 70.4 µM; in the test on DU-145 prostate, over 100 µM; in the test on BT-549 breast, 34.7 µM; with M14 melanoma, over 100 µM; in the test with HOP-92 NSCLC it was 51.5 µM. Moreover, the TGI was 97.3 µM in the test on IGROV1 ovarian, over 100 µM in the test on UO-31 renal, over 100 µM in the test with HT29 colon and over 100 µM in the test with OVCAR-4 ovarian.
On to `Cc1cnc(NC(=O)Nc2cc(Br)c(C)cc2OC[C@@H]2CNCCO2)cn1`, for which the GI50 with MDA-MB-435 was 0.459 µM and 0.378 µM; in the test on RXF 393 renal, 0.564 µM and 0.219 µM; in the test on DU-145 prostate, 2.08 µM and 0.659 µM; in the test on BT-549 breast it was 1.28 µM and 1.29 µM; with M14 melanoma, 0.338 µM and 0.311 µM; in the test on HOP-92 NSCLC it was 0.546 µM and 0.389 µM. Besides, the GI50 is 0.979 µM and 1.36 µM with IGROV1 ovarian; 0.483 µM and 1.06 µM in the test with UO-31 renal; 1.95 µM and 2.59 µM with HT29 colon; 5.85 µM and 1.05 µM with OVCAR-4 ovarian. The TGI is 3.58 µM and 2.43 µM in the test with MDA-MB-435; > 10 µM and 11.5 µM in the test with DU-145 prostate; > 10 µM and 13.6 µM in the test on BT-549 breast; 1.37 µM and 0.999 µM in the test on M14 melanoma; > 10 µM and 5.72 µM in the test on HOP-92 NSCLC; > 10 µM and 17 µM in the test on IGROV1 ovarian. Also, the TGI is > 10 µM and 12 µM with UO-31 renal; > 10 µM and 10.1 µM in the test with HT29 colon; > 10 µM and 15.5 µM in the test with OVCAR-4 ovarian.
For the compound `CC(=O)O[C@H]1CC[C@@]2(C)C(=CC[C@H]3[C@@H]4CC[C@H](c5cc(C(F)(F)F)n(C(C)=O)n5)[C@@]4(C)CC[C@@H]32)C1`, the TGI was found to be 21.4 µM in the test with MDA-MB-435; 17.8 µM with RXF 393 renal; 23.5 µM in the test with DU-145 prostate; 25.8 µM with BT-549 breast; 22.1 µM in the test with M14 melanoma; 6.43 µM in the test on HOP-92 NSCLC. Also, the TGI came out at 16.4 µM in the test with IGROV1 ovarian, 3.23 µM with UO-31 renal, 17.4 µM in the test with HT29 colon and 15.6 µM in the test with OVCAR-4 ovarian.
Regarding `[Cl][Hg][Cl]`, the GI50 is 15.7 µM in the test on MDA-MB-435; 18.2 µM with RXF 393 renal; 20.1 µM with DU-145 prostate; 20.3 µM with BT-549 breast; 16.2 µM in the test on M14 melanoma; 17.3 µM in the test with HOP-92 NSCLC. In addition, the GI50 was 8.2 µM with IGROV1 ovarian, 22.7 µM in the test with UO-31 renal, 16.1 µM in the test on HT29 colon and 16.9 µM with OVCAR-4 ovarian. Besides, the TGI in the test with MDA-MB-435 was determined as 30.2 µM; in the test on RXF 393 renal, 32.6 µM; in the test on DU-145 prostate, 34.8 µM; in the test on BT-549 breast, 34.8 µM; in the test with M14 melanoma, 32.2 µM; with HOP-92 NSCLC, 32.7 µM. Moreover, the TGI is 24.8 µM in the test with IGROV1 ovarian, 37.2 µM in the test with UO-31 renal, 36.3 µM with HT29 colon and 35 µM in the test with OVCAR-4 ovarian.
On to `COc1ccc(-c2cc(=O)c3ccc(C)nc3[nH]2)cc1`, for which, in the test on MDA-MB-435, the GI50 was 42.7 µM. Moreover, the TGI with MDA-MB-435, in the test on RXF 393 renal, in the test on DU-145 prostate, in the test on BT-549 breast, with M14 melanoma and with HOP-92 NSCLC was over 100 µM in each case. The TGI with IGROV1 ovarian, in the test with UO-31 renal, in the test with HT29 colon and in the test with OVCAR-4 ovarian was over 100 µM in each case.
Regarding `S=C(Nc1ccc(Br)cc1)Nc1ccc(Br)cc1`, the GI50 was 6.04 µM in the test with MDA-MB-435; over 100 µM with RXF 393 renal; 6.41 µM in the test on DU-145 prostate; 44.2 µM in the test on BT-549 breast; 8.3 µM with M14 melanoma; 2.72 µM in the test on HOP-92 NSCLC. The GI50 in the test with IGROV1 ovarian was 7.41 µM; in the test with UO-31 renal it was 12.7 µM; in the test on HT29 colon, 7.22 µM; in the test on OVCAR-4 ovarian it was 7.51 µM. The TGI in the test on MDA-MB-435 was over 100 µM; in the test with RXF 393 renal, over 100 µM; with DU-145 prostate, over 100 µM; in the test with BT-549 breast, over 100 µM; in the test on M14 melanoma, over 100 µM; with HOP-92 NSCLC, 9.13 µM. The TGI in the test with IGROV1 ovarian, in the test with UO-31 renal, with HT29 colon and with OVCAR-4 ovarian was over 100 µM each time.
